In US8895717B2, “Delivery of siRNA by neutral lipid compositions” (The Board of Regents of the University of Texas System, priority 2005, dated 2014):
d = 2'-deoxy (DNA); r = 2'-OH (RNA)

Experiments:
SKOV3 cells = test: TUNEL apoptosis assay, SKOV3; assay type: cell-based, human; settings: sensitive and resistant cell lines
Procedure: Terminal deoxynucleotidyl transferase-mediated nick end labeling-positive cells were detected using Dead End Fluorometric terminal deoxynucleotidyl transferase-mediated nick end labeling system (APO-DIRECT, BD Biosciences/PharMingen, San Diego, Calif.) according to the manufacturer's instructions. […] Cells were fixed with 4% paraformaldehyde solution for 25 minutes on ice. Intracellular DNA fragments were then labeled by exposing cells to fluorescein-12-dUTP, treated with propidium iodide and RNaseA solution, and analyzed by flow cytometry (EPICS XL, Beckman Coulter, Miami, Fla.). The percentages of apoptotic cells were averaged over three consecutive experiments.

HeyA8 cells [1] = test: Chronic restraint stress, HeyA8 orthotopic tumor growth; assay type: in vivo, nude mice; settings: siRNA in DOPC three times per week
Description: Mice habituated to vivarium conditions for 1 week before the initiation of stress procedures. A restraint-stress procedure was used based on previous studies (Sheridan et al., 1991), substituting a novel Mouse Restraint System (FIG. 15A) for conical centrifuge tubes. In this system, up to 10 mice are placed in individual slots, and each slot can be adjusted to restrain the animal for a desired length of time. In the present study, restraint stress began between 8 a.m. and 10 a.m., and lasted for 2-6 hours for up to 21 days. […] Immunohistochemistry and H&E staining procedures were carried out on formalin-fixed paraffin-embedded tumors. […] Pumps were inserted on the nape of the neck 7 days prior to initiation of restraint stress for 2 hours daily. Mice were anesthetized with inhaled methoxyflurane (Medical Developments Australia Pty. Ltd, Melbourne, Australia), and implanted with Alzet pumps containing PBS or S-propranolol hydrochloride (Sigma Co., St. Louis, Mo.) diluted in PBS at a dose of 2 mg/kg/day, which allows for chronic continuous receptor blockade, for 28 days (Aarons and Molinoff, 1982; Exton et al., 2002).

HeyA8-MDR cells = test: Cytotoxicity assay (MTT), HeyA8-MDR; assay type: cell-based, human; settings: HeyA8-MDR; siRNA 48 hours before docetaxel
Procedure: (§1) The medium was exchanged after 48 hours with increasing concentrations of docetaxel (obtained from Aventis Pharma, Bridgewater, N.J.) dissolved in ethanol (final concentration range, 0.1-10,000 nmol/L prepared in medium) or cisplatin (purchased from LKT Laboratories, Inc., St. Paul, Minn.) dissolved in water. After a 96-hour incubation, 50 μL of 0.15% 3-(4,5-dimethylthiazol-2-yl)-2,5-diphenyltetrazolium bromide was added to each well and incubated for 2 hours. The supernatant was removed, and cells were dissolved in 100 μL DMSO. The absorbance at 570 nm was recorded using a FALCON microplate reader (Becton Dickinson Labware, Bedford, Mass.), and cell survival expressed as a percent increase or decrease above control conditions, after subtracting blank A570 readings. The IC50 concentration was determined by finding the A570 reading midpoint between maximal and minimal readings and finding the chemotherapy concentration that intersects the growth curve at that A570 reading.

[2] = tested on: SKOV3-TR and HeyA8-MDR cells; test: TUNEL apoptosis assay, taxane-resistant cells; assay type: cell-based, human; settings: FAK siRNA with or without docetaxel
Procedure: Terminal deoxynucleotidyl transferase-mediated nick end labeling-positive cells were detected using Dead End Fluorometric terminal deoxynucleotidyl transferase-mediated nick end labeling system (APO-DIRECT, BD Biosciences/PharMingen, San Diego, Calif.) according to the manufacturer's instructions. Briefly, ovarian cancer cells in culture were treated with varying concentrations of docetaxel and harvested after 12, 24, 48, or 96 hours. Cells were fixed with 4% paraformaldehyde solution for 25 minutes on ice. Intracellular DNA fragments were then labeled by exposing cells to fluorescein-12-dUTP, treated with propidium iodide and RNaseA solution, and analyzed by flow cytometry (EPICS XL, Beckman Coulter, Miami, Fla.). The percentages of apoptotic cells were averaged over three consecutive experiments.

HeyA8 cells [3] = test: Cytotoxicity assay (MTT), HeyA8; assay type: cell-based, human; settings: HeyA8; siRNA 48 hours before docetaxel; at 50% cytotoxicity
Procedure: as §1

SKOV3-TR cells = test: Cytotoxicity assay (MTT), SKOV3-TR; assay type: cell-based, human; settings: SKOV3-TR; siRNA 48 hours before docetaxel
Procedure: as §1

Murine FAK = test: FAK siRNA treatment of murine endothelial cells; assay type: cell-based, mouse; settings: murine endothelial cells from the ovary of ImmortoMice
Description: To determine potential mechanisms underlying the efficacy of anti-FAK based therapy, its effects on several biological endpoints were examined, including angiogenesis (MVD), proliferation (PCNA), and apoptosis (TUNEL). Due to growing evidence related to FAK and tumor angiogenesis (Kornberg et al., 2004; Mitra et al., 2005). The inventors evaluated vessel density (FIG. 14B) in the tumors harvested from the studies described above. […] To determine if FAK siRNA mediated in vivo effects on endothelial cells were direct, the inventors treated murine endothelial cells isolated from the ovary of ImmortoMice (H-2k(b)-ts A58) (Langley et al., 2003) with FAK siRNA. Murine FAK levels were not altered by the FAK siRNA used for the in vivo studies (data not shown).

Substance	apoptosis in combination with docetaxel (SKOV3 cells)	effect on stress induced increase in tumor weight, nodules and metastasis (HeyA8 cells [1])	fold increase in sensitivity to docetaxel (HeyA8-MDR cells) [fold]	apoptosis [2]	fold greater docetaxel cytotoxicity after FAK down-regulation (HeyA8 cells [3]) [fold]	fold increase in sensitivity to docetaxel (SKOV3-TR cells) [fold]	Murine FAK levels (Murine FAK)
control siRNA: sense r(UUUUCCGAACGUGUCACGU)dTT, antisense r(ACGUGACACGUUCGGAGAA)dTT, no homology with human mRNA; in vivo in DOPC (sense UUUUCCGAACGUGUCACGUTT; antisense ACGUGACACGUUCGGAGAATT; sugars from the 5' end r19 d2, backbone not given here)	did not enhance apoptosis in combination with docetaxel	failed to block stress-induced enhancement of tumor weight and nodules	–	–	–	–	–
FAK siRNA: sense r(CCACCUGGGCCAGUAUUAU)d(TT), antisense r(AUAAUACUGGCCCAGGUGG)d(TT); for in vivo delivery incorporated into DOPC (sense CCACCUGGGCCAGUAUUAUTT; antisense AUAAUACUGGCCCAGGUGGTT; sugars from the 5' end r19 d2, backbone not given here)	–	–	5.5	neither agent alone induced much apoptosis	8	4.8	not altered
